# In PubChem BioAssay (NCI):
#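 Step 1: Grow cells in 96-well plates. Step 2: Expose to compound for 48 hours at 5 concentrations. Step 3: Interpolate endpoints linearly; if unreached, use highest concentration. The concentration for 50% growth inhibition is given as GI50. TGI denotes the concentration required for complete inhibition of growth.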
# Tests used:
# Assay in all cases: NCI anticancer screen, dose series, 48 h
# SK-MEL-5 melanoma = tested on: SK-MEL-5 melanoma
# UACC-62 melanoma = tested on: UACC-62 melanoma
# EKVX NSCLC = tested on: EKVX NSCLC
# CAKI-1 renal = tested on: CAKI-1 renal
# M14 melanoma = tested on: M14 melanoma
# SK-MEL-28 melanoma = tested on: SK-MEL-28 melanoma
# ACHN renal = tested on: ACHN renal
# HOP-92 NSCLC = tested on: HOP-92 NSCLC
# SN12C renal = tested on: SN12C renal
# RXF 393 renal = tested on: RXF 393 renal
# SNB-75 CNS = tested on: SNB-75 CNS
SMILES,TGI (SK-MEL-5 melanoma) [µM],TGI (UACC-62 melanoma) [µM],TGI (EKVX NSCLC) [µM],TGI (CAKI-1 renal) [µM],TGI (M14 melanoma) [µM],TGI (SK-MEL-28 melanoma) [µM],TGI (ACHN renal) [µM],TGI (HOP-92 NSCLC) [µM],TGI (SN12C renal) [µM],TGI (RXF 393 renal) [µM],TGI (SNB-75 CNS) [µM],GI50 (RXF 393 renal) [µM]
CC(=O)O[C@H]1C(=O)[C@@]2(C)[C@H]([C@H](OC(=O)c3ccccc3)[C@]3(O)C[C@H](OC(=O)[C@H](O)[C@@H](NC(=O)c4ccco4)c4ccccc4)C(C)=C1C3(C)C)[C@]1(OC(C)=O)CO[C@@H]1C[C@@H]2O,> 12.5,> 12.5,> 12.5,> 12.5,> 12.5,> 12.5,> 12.5,–,–,–,–,–
COc1ccc(OC)c2c1C=CC(Br)=CC2,> 1,0.345,> 1,0.913,0.822,> 1,> 1,0.463,> 1,–,–,–
O=C(NNC(=S)NC1CCCCC1)C12CC3CC(CC(C3)C1)C2,> 100,> 100,–,> 100,> 100,> 100,> 100,–,> 100,> 100,> 100,–
CCOC(=O)c1nc2ccc(C(F)(F)F)cc2nc1NCc1ccc(OC)c(OC)c1,> 100,> 100,> 100,> 100,> 100,–,> 100,> 100,–,> 100,> 100,–
CCC(C)[C@@H](Nc1c(O)c2c(c(O)c1Cl)C(=O)C=CC2=O)C(=O)OC (stereo not given in full),4.51,> 10,> 10,> 10,9.41,–,> 10,> 10,> 10,–,> 10,–
N[C@@H]1CCN(c2c(F)cc3c(=O)c(C(=O)O)cn4c3c2Oc2cc3c(ccc5ccccc53)cc2-4)C1,> 40,26.7,–,> 77.5,> 100,> 93.2,> 41.7,7.56,> 100,> 100,> 100,3.78
CSCSCC(CO)NC(=O)/C(C)=C\c1c(C)[nH]c(=O)[nH]c1=O (stereo not given),> 250,> 250,> 250,> 250,–,> 250,–,23.9,> 250,> 250,> 250,–
CCC1(c2ccc(N3C(=O)c4cc(OC)c(OC)cc4C3=O)cc2)CCC(=O)NC1=O (stereo not given),> 10,> 10,> 10,> 10,> 10,> 10,> 10,> 10,> 10,> 10,–,–
Cc1cc(=O)oc2cc(OCC(O)COC(C)C)ccc12 (stereo not given),> 100,> 100,> 100,> 100,> 100,> 100,> 100,> 100,> 100,–,> 100,–
Clc1ccc(CCN[C@H]2CCCC[C@H]2N2CCCC2)cc1Cl,28.5,34.9,> 100,> 100,30.3,86.2,> 100,–,54.3,–,–,–
C=CC1CN(C(=O)OCC)N(C(=O)OCC)C1CCc1ccccc1 (stereo not given),> 100,> 100,> 100,> 100,> 100,> 100,> 100,> 100,> 100,–,> 100,–
COc1ccc2c(c1)/C(=C\c1c(Cl)[nH]c3ccccc13)C(=O)N2,14.8,20,18.5,27.1,16.2,8.05,20.8,12.5,24.7,13.4,–,–
O=C1NN(Cc2ccccc2)C(=O)N2CCC[C@@H]12,> 100,> 100,> 100,> 100,> 100,> 100,> 100,> 100,> 100,> 100,–,–
COc1ccc(-c2c3c(n(C4OC(CO)C(O)C(O)C4O)c(=S)c2C#N)CCCC3)cc1 (stereo not given),> 100,> 100,> 100,> 100,> 100,–,> 100,–,> 100,> 100,18.7,–
COC(=O)CCNC(=O)OCc1ccccc1,> 100,> 100,> 100,> 100,> 100,> 100,> 100,–,> 100,–,> 100,–
CC(=O)OCC1OC(n2c3c(c(-c4ccc(Cl)cc4)c(C#N)c2=S)CCCC3)C(OC(C)=O)C(OC(C)=O)C1OC(C)=O (stereo not given),58.6,75.1,–,–,> 100,94.6,> 100,40.4,> 100,84.4,79.6,–
O=C1CC(CC(=O)c2ccc(Br)cc2)C(=O)/C1=C(/O)c1ccc(Br)cc1 (stereo not given),> 100,> 100,> 100,> 100,> 100,> 100,> 100,> 100,> 100,> 100,–,–
CN(CCCNC(=O)c1cn(C)c2c1Cc1ccccc1-2)CCCNC(=O)c1cn(C)c2c1Cc1ccccc1-2,28.4,27.6,22.6,28.4,11.6,24,22.9,7.89,27,34.9,–,–
CCOC(=O)c1c(NC(=S)Nc2ccc(Cl)cc2)sc2c1CCN(C)C2,> 100,> 100,> 100,> 100,> 100,–,> 100,–,> 100,> 100,–,–
COc1nc(N)c(NC(C)=O)c(=O)n1C,–,–,> 100,> 100,> 100,> 100,> 100,> 100,> 100,> 100,> 100,–
Fc1ccc2c3c([nH]c2c1)CCN(Cc1ccccc1)C3,38.8,35.2,48.7,–,34.5,30.3,47.3,18.7,35.4,31,32.9,–
CC1CCC2CC(=O)OC([C@@H]3C(=O)O[C@@H](C4=CCCC4)C4C(C)CCC43)C12 (stereo not given in full),> 100,> 100,> 100,> 100,> 100,> 100,> 100,–,> 100,> 100,> 100,–
